Measurements as given in the NIST ThermoML archive (doi:10.1021/je900596d).
± gives the expanded uncertainty stated by the source.

Settings: for vapor or sublimation pressure: Liquid, Closed cell (Static) method; for mass density: 263.41 K, Fluid (supercritical or subcritical phases), Vibrating tube method

**Q.** Which results are given for `FC(F)=C(F)C(F)(F)F` [hexafluoropropene]?
**A.** vapor or sublimation pressure (253.26 K): 149.7 ± 1.1 kPa; vapor or sublimation pressure (258.26 K): 184.1 ± 1.1 kPa; vapor or sublimation pressure (263.16 K): 224.5 ± 1.1 kPa; mass density (1.9 kPa): 0.11 ± 0.03 kg/m3; mass density (2.4 kPa): 0.12 ± 0.03 kg/m3; mass density (2.9 kPa): 0.15 ± 0.03 kg/m3; mass density (3.5 kPa): 0.21 ± 0.03 kg/m3; mass density (4.3 kPa): 0.25 ± 0.03 kg/m3; mass density (5 kPa): 0.26 ± 0.03 kg/m3; mass density (5.7 kPa): 0.35 ± 0.03 kg/m3; mass density (6.3 kPa): 0.39 ± 0.03 kg/m3; mass density (7.1 kPa): 0.47 ± 0.03 kg/m3; mass density (7.8 kPa): 0.48 ± 0.03 kg/m3; mass density (8.5 kPa): 0.55 ± 0.03 kg/m3; mass density (9.3 kPa): 0.61 ± 0.03 kg/m3; mass density (10 kPa): 0.66 ± 0.03 kg/m3; mass density (10.7 kPa): 0.71 ± 0.03 kg/m3; mass density (11.4 kPa): 0.79 ± 0.03 kg/m3; mass density (12.1 kPa): 0.8 ± 0.03 kg/m3; mass density (12.9 kPa): 0.87 ± 0.03 kg/m3; mass density (13.6 kPa): 0.9 ± 0.03 kg/m3; mass density (14.4 kPa): 0.96 ± 0.03 kg/m3; mass density (15 kPa): 1 ± 0.03 kg/m3; mass density (15.8 kPa): 1.02 ± 0.03 kg/m3; mass density (16.5 kPa): 1.08 ± 0.03 kg/m3; mass density (17.1 kPa): 1.17 ± 0.03 kg/m3; mass density (17.9 kPa): 1.18 ± 0.03 kg/m3; mass density (18.6 kPa): 1.25 ± 0.03 kg/m3; mass density (20 kPa): 1.33 ± 0.03 kg/m3; mass density (21.5 kPa): 1.4 ± 0.03 kg/m3; mass density (22.9 kPa): 1.53 ± 0.03 kg/m3; mass density (24.3 kPa): 1.63 ± 0.03 kg/m3; mass density (25.8 kPa): 1.75 ± 0.03 kg/m3; mass density (27.2 kPa): 1.83 ± 0.03 kg/m3; mass density (28.6 kPa): 1.89 ± 0.03 kg/m3; mass density (30 kPa): 2.05 ± 0.03 kg/m3; mass density (31.4 kPa): 2.13 ± 0.03 kg/m3; mass density (32.8 kPa): 2.25 ± 0.03 kg/m3; mass density (34.2 kPa): 2.33 ± 0.03 kg/m3; mass density (35.5 kPa): 2.43 ± 0.03 kg/m3; mass density (36.3 kPa): 2.5 ± 0.03 kg/m3; mass density (37.7 kPa): 2.61 ± 0.03 kg/m3; mass density (39 kPa): 2.7 ± 0.03 kg/m3; mass density (40.5 kPa): 2.77 ± 0.03 kg/m3; mass density (41.9 kPa): 2.87 ± 0.03 kg/m3; mass density (43.2 kPa): 2.95 ± 0.03 kg/m3; mass density (44.5 kPa): 3.08 ± 0.03 kg/m3; mass density (45.3 kPa): 3.09 ± 0.03 kg/m3; mass density (46.6 kPa): 3.21 ± 0.03 kg/m3; mass density (48 kPa): 3.31 ± 0.03 kg/m3; mass density (49.4 kPa): 3.4 ± 0.03 kg/m3; mass density (50.7 kPa): 3.48 ± 0.03 kg/m3; mass density (52.1 kPa): 3.59 ± 0.03 kg/m3; mass density (53.4 kPa): 3.66 ± 0.03 kg/m3; mass density (54.7 kPa): 3.8 ± 0.03 kg/m3; mass density (56.1 kPa): 3.85 ± 0.03 kg/m3; mass density (57.5 kPa): 3.97 ± 0.03 kg/m3; mass density (58.8 kPa): 4.06 ± 0.03 kg/m3; mass density (60.1 kPa): 4.18 ± 0.03 kg/m3; mass density (61.4 kPa): 4.28 ± 0.03 kg/m3; mass density (62.8 kPa): 4.33 ± 0.03 kg/m3; mass density (64 kPa): 4.44 ± 0.03 kg/m3; mass density (65.4 kPa): 4.56 ± 0.03 kg/m3; mass density (66.7 kPa): 4.62 ± 0.03 kg/m3; mass density (68 kPa): 4.73 ± 0.03 kg/m3; mass density (69.3 kPa): 4.82 ± 0.03 kg/m3; mass density (70.5 kPa): 4.89 ± 0.03 kg/m3; mass density (71.3 kPa): 4.97 ± 0.03 kg/m3; mass density (72.5 kPa): 5.04 ± 0.03 kg/m3; mass density (73.9 kPa): 5.17 ± 0.03 kg/m3; mass density (75.2 kPa): 5.2 ± 0.03 kg/m3; mass density (76.4 kPa): 5.28 ± 0.03 kg/m3; mass density (77.7 kPa): 5.44 ± 0.03 kg/m3; mass density (79 kPa): 5.49 ± 0.03 kg/m3; mass density (80.3 kPa): 5.61 ± 0.03 kg/m3; mass density (81.6 kPa): 5.72 ± 0.03 kg/m3; mass density (82.7 kPa): 5.81 ± 0.03 kg/m3; mass density (83.5 kPa): 5.85 ± 0.03 kg/m3; mass density (84.7 kPa): 5.95 ± 0.03 kg/m3; mass density (86 kPa): 6 ± 0.03 kg/m3; mass density (87.2 kPa): 6.11 ± 0.03 kg/m3; mass density (88.4 kPa): 6.26 ± 0.03 kg/m3; mass density (89.8 kPa): 6.31 ± 0.03 kg/m3; mass density (91 kPa): 6.41 ± 0.03 kg/m3; mass density (92.3 kPa): 6.52 ± 0.03 kg/m3; mass density (93.5 kPa): 6.56 ± 0.03 kg/m3; mass density (94.6 kPa): 6.62 ± 0.03 kg/m3; mass density (96 kPa): 6.75 ± 0.03 kg/m3; mass density (97.3 kPa): 6.84 ± 0.03 kg/m3; mass density (98.5 kPa): 6.94 ± 0.03 kg/m3; mass density (99.7 kPa): 7.02 ± 0.03 kg/m3; mass density (100.4 kPa): 7.07 ± 0.03 kg/m3; mass density (101.6 kPa): 7.14 ± 0.03 kg/m3; mass density (102.8 kPa): 7.21 ± 0.03 kg/m3; mass density (104.5 kPa): 7.41 ± 0.03 kg/m3; mass density (105.8 kPa): 7.51 ± 0.03 kg/m3; mass density (107 kPa): 7.55 ± 0.03 kg/m3; mass density (108.2 kPa): 7.68 ± 0.03 kg/m3; mass density (109.5 kPa): 7.75 ± 0.03 kg/m3; mass density (110.7 kPa): 7.85 ± 0.03 kg/m3; mass density (112.4 kPa): 7.99 ± 0.03 kg/m3; mass density (114.2 kPa): 8.06 ± 0.03 kg/m3; mass density (115.5 kPa): 8.22 ± 0.03 kg/m3; mass density (116.7 kPa): 8.3 ± 0.04 kg/m3; mass density (117.9 kPa): 8.33 ± 0.04 kg/m3; mass density (119.6 kPa): 8.49 ± 0.04 kg/m3; mass density (120.8 kPa): 8.59 ± 0.04 kg/m3; mass density (122 kPa): 8.7 ± 0.04 kg/m3; mass density (123.2 kPa): 8.78 ± 0.04 kg/m3; mass density (124.4 kPa): 8.88 ± 0.04 kg/m3; mass density (126 kPa): 8.99 ± 0.04 kg/m3; mass density (127.2 kPa): 9.05 ± 0.04 kg/m3; mass density (128.4 kPa): 9.16 ± 0.04 kg/m3; mass density (130.2 kPa): 9.28 ± 0.04 kg/m3; mass density (131.8 kPa): 9.44 ± 0.04 kg/m3; mass density (133 kPa): 9.5 ± 0.04 kg/m3; mass density (134.7 kPa): 9.61 ± 0.04 kg/m3; mass density (136.4 kPa): 9.79 ± 0.04 kg/m3; mass density (138.1 kPa): 9.87 ± 0.04 kg/m3; mass density (139.8 kPa): 10.02 ± 0.04 kg/m3; mass density (141.5 kPa): 10.14 ± 0.04 kg/m3; mass density (143.2 kPa): 10.31 ± 0.04 kg/m3; mass density (144.8 kPa): 10.44 ± 0.04 kg/m3; mass density (146.5 kPa): 10.54 ± 0.04 kg/m3; mass density (148.1 kPa): 10.66 ± 0.04 kg/m3; mass density (149.8 kPa): 10.8 ± 0.04 kg/m3; mass density (151.4 kPa): 10.89 ± 0.04 kg/m3; mass density (153 kPa): 11.03 ± 0.04 kg/m3; mass density (154.7 kPa): 11.17 ± 0.04 kg/m3; mass density (156.3 kPa): 11.29 ± 0.04 kg/m3; mass density (157.9 kPa): 11.41 ± 0.04 kg/m3; mass density (159.6 kPa): 11.53 ± 0.04 kg/m3; mass density (161.2 kPa): 11.7 ± 0.04 kg/m3
